# Results taken from US5508424A, “4-arylisoindole analgesics” (Ortho Pharmaceutical Corporation, priority 1993, dated 1996).
# Test system: Acetylcholine-Bromide Induced Abdominal Constriction
# Test: Mouse Acetylcholine Bromide-Induced Abdominal Constriction Assay
# Type: in vivo
# Conditions: Mus musculus, 0.5 h; @ 3 mpk/po; acetylcholine bromide 5.5 mg/kg i.p. 30 min after drug; % analgesia
# Description: Mouse Acetylcholine Bromide-Induced Abdominal Constriction Assay
# The mouse acetylcholine-induced abdominal constiction assay, as described by Collier et al. in Brit. J. Pharmacol. Chem. Ther., 32: 295-310, 1968, with minor modifications was used to assess analgesic potency of the compounds of formula (I). The test drugs or appropriate vehicle were administered orally (p.o.) and 30 minutes later the animal received an intraperitoneal (i.p.) injection of 5.5 mg/kg acetylcholine bromide (Matheson, Coleman and Bell, East Rutherford, N.J.). The mice were then placed in groups of three into glass bell jars and observed for a ten minute observation period for the occurrence of an abdominal constriction response (defined as a wave of constriction and elongation passing caudally along the abdominal wall, accompanied by a twisting of the trunk and followed by extension of the hind limbs). The percent inhibition of this response to a nociceptive stimulus (equated to % analgesia) was calculated as follows: The % Inhibition of response, i.e., % analgesia is equal to the difference between the No. of control animals response and the No. of drug-treated animals response times 100 divided by the No. of control animals responding.
# At least 15 animals were used for control and in each of the drug treated groups. At least three doses were used to determine each dose response curve and ED50 (that dose which would produce 50% analgesia). The ED50 values and their 95% fiducial limits were determined by a computer assisted probit analysis.
row,SMILES,inhibition in vivo at 3 mg/kg [%]
1,CN1C[C@H]2CCC[C@H](c3ccc(C(F)(F)F)cc3)[C@@H]2C1 (relative stereo) [Cp-17],33

# Same assay, conditions: Mus musculus, 0.5 h; @ 30 mpk/po; acetylcholine bromide 5.5 mg/kg i.p. 30 min after drug; % analgesia
row,SMILES,inhibition in vivo at 30 mg/kg [%]
1,FC(F)(F)c1ccc([C@H]2CCC[C@@H]3CN(CCC(c4ccccc4)c4ccccc4)C[C@H]32)cc1 (relative stereo) [Cp-22],13.3
2,CN1C[C@@H]2CCC[C@@H](c3ccc(Br)cc3)[C@@H]2C1 (relative stereo) [Cp-34],100
3,COc1cccc([C@@H]2CCC[C@H]3CN(C)C[C@H]32)c1 (relative stereo) [Cp-1],30 to 40
4,COc1cccc([C@@H]2CCC[C@@H]3CN(Cc4ccccc4)C[C@H]32)c1 (relative stereo) [Cp-6],13.3
5,CCCCN1CC2CCCC(c3cccc(C(F)(F)F)c3)C2C1 (stereo not shown) [Cp-18],66.7
6,CN1C[C@@H]2CCC[C@H](c3ccc(Cl)c(Cl)c3)[C@@H]2C1 (relative stereo) [Cp-46],100
7,COc1cccc([C@@H]2CCC[C@H]3CN(C)C[C@H]32)c1OC (relative stereo) [Cp-8],78.8

# Same assay, conditions: Mus musculus; po; dose producing 50% analgesia, probit analysis; read-out: ED50
row,SMILES,ED50 [mg/kg]
1,"Cc1cccc([C@@H]2CCC[C@@H]3CN(C)C[C@H]32)c1 (relative stereo) [Cp-24, 3aα,7aβ Octahydro-2-methyl-4α-(3-methylphenyl)-1H-isoindole Monofumarate]",23.6
2,CN1C[C@H]2CCC[C@@H](c3ccccc3)[C@@H]2C1 (relative stereo) [Cp-13],8.35
3,CN1C[C@H]2CCC[C@@H](c3ccc(Cl)c(Cl)c3)[C@@H]2C1 (relative stereo) [Cp-15],7
4,CN1C[C@@H]2CCC[C@H](c3ccccc3)[C@@H]2C1 (relative stereo) [Cp-43],4.9
5,"Clc1ccc([C@H]2CCC[C@H]3CNC[C@H]32)cc1Cl (relative stereo) [Cp-35, 4β-(3,4-dichlorophenyl)-3aα,7aα-octahydro-1H-isoindole]",9.63
6,CN1C[C@H]2CCC[C@H](c3ccc(Cl)c(Cl)c3)[C@@H]2C1 (relative stereo) [Cp-14],2.8
7,"CN1C[C@@H]2CCC[C@H](c3ccc(Br)cc3)[C@@H]2C1 (relative stereo) [Cp-44, 4β-bromophenyl-2-methyl-3aα,7aα-octahydro-1H-isoindole]",9.15
8,CN1C[C@H]2CCC[C@@H](c3ccc(C(F)(F)F)cc3)[C@@H]2C1 (relative stereo) [Cp-16],4.6
9,"CN1C[C@H]2CCC[C@@H](c3cccc(C(F)(F)F)c3)[C@@H]2C1 (relative stereo) [Cp-7, 3aα, 4α,7aβ-Octahydro-2-methyl-4-(3-trifluoromethylphenyl)-1H-isoindole Monofumarate]",7.46

# Same assay, conditions: po; dose producing 50% analgesia, probit analysis
row,SMILES,ED50 [mpk]
1,"Cc1cccc(C2CCCC3CN(C)CC32)c1.O=C(O)/C=C/C(=O)O (single isomer, unassigned; (-)) [Cp-24-, (-)3aα,7aβ Octahydro-2-methyl-4α-(3-methylphenyl)-1H-isoindole Monofumarate]",24.9
2,"Cc1cccc([C@@H]2CCC[C@@H]3CN(C)C[C@@H]32)c1.O=C(O)/C=C/C(=O)O [Cp-24+, (+)3aα,4α,7aβ Octahydro-2-methyl-4-(3-methylphenyl)-1H-isoindole Monofumarate]",21.6
